In patent publication US12065443B2, “Compounds and pharmaceutical compositions thereof for the treatment of diseases” (priority 2017, dated 2024) one finds IC50 and EC50 data, which are given here for 18 molecules.

Read-outs that look alike come from different tables or passages of the source.

In assay [1] the target is T1, SIK1 (Homo sapiens, UniProt P57059).
T1 construct: purchased Carna Biosciences 02-131
In words: biochemical. Particulars: ADP-Glo SIK kinase assay. The method, then: (§1) The ADP-Glo™ kinase assay is a luminescent technology assay which measures the ADP formed from a kinase reaction. […] In a second step the kinase reactions are terminated and all the remaining ATP is depleted. In a final step the ADP is converted into ATP and this newly synthesized ATP is measured by using a luciferase/luciferin reaction. The generated light is measured using an Envision plate reader, wherein the luminescent signal obtained positively correlates with the kinase activity.
(§2) 1% DMSO and 10 μM staurosporine final concentrations are used as negative and positive controls.
(§3) 2 μL enzyme-substrate mixture is added to the assay plates.
(§4) The reaction is started by adding 2 μL diluted ATP on the assay plates. Plates are centrifuged for a few seconds at 1000 rpm and gently shaken for 2 min followed by an incubation at RT for 120 min.
(§5) The reactions are stopped and the unconsumed ATP is depleted by adding 5 μL ADP-Glo Reagent (Promega, Cat #V912B) to the reaction. The plates are centrifuged for a few seconds at 1000 rpm and incubated at RT for 40 min (ATP depletion).
(§6) The ADP is converted to ATP and luciferase and luciferin is introduced to detect ATP by adding 10 μL Kinase Detection Reagent (Promega, Cat #V913B+V914B) to the reaction. The plates are centrifuged for a few seconds at 1000 rpm and incubated at RT for 30 min (ADP detection).
(§7) Luminescence is measured on an Envision plate reader (PerkinElmer Inc.).
For orientation: In ADP-Glo the light output rises with the ADP produced.

For assay [2], the target named is T2, SIK2 (Homo sapiens, UniProt Q9H0K1).
T2 construct: purchased ThermoFisher Scientific PV4792
Briefly: biochemical. Particulars: ADP-Glo SIK kinase assay. The method, then:
as §1, §2, §3, §4, §5, §6, §7

The target of assay [3] is T3, SIK3 (Homo sapiens, UniProt Q9Y2K2).
T3 construct: purchased SignalChem S12-11G-100
Briefly: biochemical. Particulars: ADP-Glo SIK kinase assay. The method, then:
as §1, §2, §3, §4, §5, §6, §7

In assay [4] the test system is LPS-induced TNFα secretion in monocyte-derived macrophages (MdM). Briefly: MdM assay: LPS-triggered TNFα (ELISA). Type of assay: cell-based, human. Particulars: Homo sapiens, Macrophage, LPS-triggered TNFα inhibition. The method in brief: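 Human CD14+ monocytes isolated from buffy-coat PBMCs by magnetic beads, differentiated to macrophages; on day 10 compound preincubated 1 h at 37 °C, then LPS 200 ng/mL added (0.2% DMSO). Supernatant taken after 20 h; TNFα quantified by sandwich ELISA against standard curve.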

The target of assay [5] is T1, SIK1. Briefly: biochemical. To be noted: 33P radioactive SIK kinase assay, AMARA peptide, 10 μM ATP; read-out: SIK1 IC50. The procedure, abridged:
(§8)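 Read-out: ^33P incorporated into AMARA peptide, counted on filter plates, taken as kinase activity. Reactions start on addition of labeled/unlabeled ATP to enzyme plus substrate and end with phosphoric acid. Controls: 1% DMSO (negative) and 10 μM staurosporine (positive), final.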

Assay [6] has as its target T2, SIK2. Briefly: biochemical. To be noted: 33P radioactive SIK kinase assay, AMARA peptide, 10 μM ATP. The procedure, abridged: as §8
Assay [7] addresses T3, SIK3. In words: biochemical. The method in brief: as §8

T1 sequence (P57059 whole entry): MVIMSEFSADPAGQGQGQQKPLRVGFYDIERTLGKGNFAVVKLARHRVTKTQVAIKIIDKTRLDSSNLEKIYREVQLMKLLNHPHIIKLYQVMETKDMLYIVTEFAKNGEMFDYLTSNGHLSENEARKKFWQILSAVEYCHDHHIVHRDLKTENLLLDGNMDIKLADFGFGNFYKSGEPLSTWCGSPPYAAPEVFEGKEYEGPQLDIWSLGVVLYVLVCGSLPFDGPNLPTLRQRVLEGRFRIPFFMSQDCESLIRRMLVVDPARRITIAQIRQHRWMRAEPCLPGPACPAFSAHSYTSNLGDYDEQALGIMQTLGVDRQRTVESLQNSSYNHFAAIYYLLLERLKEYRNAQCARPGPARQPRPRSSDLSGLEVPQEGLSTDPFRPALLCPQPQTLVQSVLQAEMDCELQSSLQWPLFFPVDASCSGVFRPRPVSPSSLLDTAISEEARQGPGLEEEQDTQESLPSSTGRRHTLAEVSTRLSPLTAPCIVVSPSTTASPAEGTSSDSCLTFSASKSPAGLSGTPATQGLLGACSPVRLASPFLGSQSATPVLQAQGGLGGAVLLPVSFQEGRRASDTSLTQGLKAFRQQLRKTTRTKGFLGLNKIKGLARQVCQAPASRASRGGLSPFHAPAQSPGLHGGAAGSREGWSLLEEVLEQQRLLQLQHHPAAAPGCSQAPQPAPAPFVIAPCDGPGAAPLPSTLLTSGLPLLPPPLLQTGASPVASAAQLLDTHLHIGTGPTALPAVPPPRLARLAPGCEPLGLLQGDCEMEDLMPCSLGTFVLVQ
T3 sequence (Q9Y2K2 whole entry): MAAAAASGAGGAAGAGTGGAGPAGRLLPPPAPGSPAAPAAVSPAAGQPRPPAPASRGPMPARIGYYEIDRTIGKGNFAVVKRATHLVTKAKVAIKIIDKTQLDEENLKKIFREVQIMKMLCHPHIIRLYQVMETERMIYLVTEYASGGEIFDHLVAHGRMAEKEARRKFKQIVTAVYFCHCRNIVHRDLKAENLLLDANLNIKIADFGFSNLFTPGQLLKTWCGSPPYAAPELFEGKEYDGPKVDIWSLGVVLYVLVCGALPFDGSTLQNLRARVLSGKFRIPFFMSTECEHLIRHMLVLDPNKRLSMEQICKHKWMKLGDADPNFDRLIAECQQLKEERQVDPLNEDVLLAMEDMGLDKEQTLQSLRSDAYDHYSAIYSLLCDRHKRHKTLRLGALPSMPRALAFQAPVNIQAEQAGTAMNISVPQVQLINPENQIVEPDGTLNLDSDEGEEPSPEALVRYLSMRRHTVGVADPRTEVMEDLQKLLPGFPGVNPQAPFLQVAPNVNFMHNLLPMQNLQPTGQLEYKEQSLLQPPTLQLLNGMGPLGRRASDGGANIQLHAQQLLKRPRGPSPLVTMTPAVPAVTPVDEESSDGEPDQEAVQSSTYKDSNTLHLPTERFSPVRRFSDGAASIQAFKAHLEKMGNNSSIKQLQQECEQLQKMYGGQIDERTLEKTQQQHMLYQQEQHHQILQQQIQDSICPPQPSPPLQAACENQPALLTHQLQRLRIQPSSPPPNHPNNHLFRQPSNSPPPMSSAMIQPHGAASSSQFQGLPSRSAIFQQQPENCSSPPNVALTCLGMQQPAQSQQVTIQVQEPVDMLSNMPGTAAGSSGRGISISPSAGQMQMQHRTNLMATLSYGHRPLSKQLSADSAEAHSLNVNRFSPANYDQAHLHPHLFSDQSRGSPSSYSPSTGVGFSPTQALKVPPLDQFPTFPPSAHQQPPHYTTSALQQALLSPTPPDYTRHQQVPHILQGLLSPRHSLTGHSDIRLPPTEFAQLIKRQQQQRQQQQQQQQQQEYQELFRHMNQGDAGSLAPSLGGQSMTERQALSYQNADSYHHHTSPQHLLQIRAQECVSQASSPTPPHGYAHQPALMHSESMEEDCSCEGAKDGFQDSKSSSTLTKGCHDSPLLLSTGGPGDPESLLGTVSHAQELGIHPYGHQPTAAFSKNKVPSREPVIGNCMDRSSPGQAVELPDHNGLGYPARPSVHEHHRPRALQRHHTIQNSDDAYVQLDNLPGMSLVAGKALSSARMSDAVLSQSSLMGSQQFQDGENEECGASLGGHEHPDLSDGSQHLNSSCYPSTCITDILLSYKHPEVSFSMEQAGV
T2 sequence (Q9H0K1 whole entry): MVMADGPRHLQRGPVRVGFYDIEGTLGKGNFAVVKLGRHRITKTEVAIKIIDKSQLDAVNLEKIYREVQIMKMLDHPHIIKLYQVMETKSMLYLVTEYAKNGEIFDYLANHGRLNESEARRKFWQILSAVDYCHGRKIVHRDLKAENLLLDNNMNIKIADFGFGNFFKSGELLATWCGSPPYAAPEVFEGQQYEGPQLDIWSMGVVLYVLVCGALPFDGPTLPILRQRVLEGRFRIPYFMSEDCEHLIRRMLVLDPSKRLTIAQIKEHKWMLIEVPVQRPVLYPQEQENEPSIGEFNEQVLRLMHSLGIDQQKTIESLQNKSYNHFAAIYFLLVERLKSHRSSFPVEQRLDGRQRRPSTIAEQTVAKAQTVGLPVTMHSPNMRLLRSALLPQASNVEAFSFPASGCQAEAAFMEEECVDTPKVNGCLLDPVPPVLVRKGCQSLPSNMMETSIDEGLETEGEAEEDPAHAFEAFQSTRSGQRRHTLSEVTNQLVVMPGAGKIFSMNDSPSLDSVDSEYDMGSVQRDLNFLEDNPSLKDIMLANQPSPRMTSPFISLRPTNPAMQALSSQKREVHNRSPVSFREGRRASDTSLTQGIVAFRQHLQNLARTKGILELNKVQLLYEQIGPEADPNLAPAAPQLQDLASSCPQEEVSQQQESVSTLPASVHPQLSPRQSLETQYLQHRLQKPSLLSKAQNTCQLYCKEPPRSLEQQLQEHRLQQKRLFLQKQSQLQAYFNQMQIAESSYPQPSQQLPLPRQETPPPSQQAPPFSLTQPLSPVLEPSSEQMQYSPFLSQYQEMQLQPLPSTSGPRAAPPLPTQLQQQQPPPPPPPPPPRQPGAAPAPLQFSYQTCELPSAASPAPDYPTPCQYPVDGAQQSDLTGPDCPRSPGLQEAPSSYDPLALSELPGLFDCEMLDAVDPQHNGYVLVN

By IC50 is commonly meant the concentration that inhibits the measured activity by half. What is called EC50 is the midpoint of the concentration-response curve. For `CCOC(=O)C(Cn1cc(-c2ccn3c(-c4cc(OC)c(C(=O)NCC(F)(F)F)c(OC)c4)cnc3c2)cn1)C(C)C` (stereo not shown) [Cpd 294], the IC50 against SIK1 [1], against SIK2 [2] and against SIK3 [3] was 0.01 to 10 nM in each case. Besides, the EC50 in assay [4] lay in the range of 0.1 to 100 nM.

Regarding `COc1cc(-c2cnc3cc(-c4ccc(C5CC5)nn4)ccn23)cc(OC(F)F)c1C(=O)NC1CC1` [compound 285, N-cyclopropyl-4-[7-(6-cyclopropyl-pyridazin-3-yl)imidazo[1,2-a]pyridin-3-yl]-2-(difluoromethoxy)-6-methoxy-benzamide], the IC50 against SIK1 [1], against SIK2 [2] and against SIK3 [3] was 0.01 to 10 nM each time. Besides, the EC50 in assay [4] was 0.1 to 100 nM.

For the molecule `CCOC(=O)COc1cn2c(-c3cc(OC)c(C(=O)NC4CC4)c(OC(F)F)c3)cnc2cc1-c1cnn(C)c1` [Cpd 298, ethyl 2-[3-[4-(cyclopropyl-carbamoyl)-3-(difluoromethoxy)-5-methoxy-phenyl]-7-(1-methylpvrazol-4-yl)imidazo[1,2-a]pyridin-6-yl]oxyacetate], the IC50 on SIK1 [1], against SIK2 [2] and on SIK3 [3] was 0.01 to 10 nM throughout. For the same molecule, the EC50 in assay [4] is 1000 to 5000 nM.

Regarding `COc1cc(-c2cnc3cc(-c4ccc(C)nn4)ccn23)cc(OC(F)F)c1C(=O)NC1CC1` [Cpd 273, N-cyclopropyl-2-(difluoromethoxy)-6-methoxy-4-[7-(6-methylpyridazin-3-yl)imidazo[1,2-a]pyridin-3-yl]benzamide], the half-maximal inhibitory concentration (IC50) on SIK1 [1] was in the range of 10 to 100 nM; against SIK2 [2], 0.01 to 10 nM; against SIK3 [3] it was 0.01 to 10 nM. Also, in assay [4], the EC50 was in the range of 0.1 to 100 nM.

As for `COc1cc(-n2cnc3cc(-c4cn[nH]c4)ccc32)cc(OC(F)F)c1C(=O)NC1CC1` [compound 306, N-cyclopropyl-2-(difluoromethoxy)-6-methoxy-4-[5-(1H-pyrazol-4-yl)benzimidazol-1-yl]benzamide], the IC50 on SIK1 [1], on SIK2 [2] and against SIK3 [3] was 0.01 to 10 nM in each case. The EC50 in assay [4] was 0.1 to 100 nM.

Regarding `CCOC(=O)C(C)(C)n1cc(-c2ccn3c(-c4cc(OC)c(C(=O)NCC(F)(F)F)c(OC)c4)cnc3c2)cn1` [Cpd 295, ethyl 2-[4-[3-[3,5-dimethoxy-4-(2,2,2-trifluoroethyl-carbamoyl)phenyl]imidazo[1,2-a]pyridin-7-yl]pyrazol-1-yl]-2-methyl-propanoate], the IC50 against SIK1 [1], on SIK2 [2] and at SIK3 [3] was 0.01 to 10 nM each time. Besides, in assay [4], the EC50 was in the range of 0.1 to 100 nM.

As for `COc1cc(-c2cnc3cc(-c4cnn(C)c4)ccn23)cc(F)c1C(=O)NC1CC1` [Cpd 276, N-cyclopropyl-2-fluoro-6-methoxy-4-[7-(1-methylpyrazol-4-yl)imidazo[1,2-a]pyridin-3-yl]benzamide], the IC50 lay in the range of 10 to 100 nM against SIK1 [1], 0.01 to 10 nM at SIK2 [2] and 0.01 to 10 nM against SIK3 [3]. Further, the EC50 in assay [4] lay in the range of 0.1 to 100 nM.

On to `COc1cc(-c2cnc3cc(-c4cnn(C)c4)ccn23)cc(OC)c1C(=O)N[C@H]1C[C@@H]1C(F)F` [compound 172, N-[(1S,2S)-2-(difluoromethyl)cyclopropyl]-2,6-dimethoxy-4-[7-(1-methylpyrazol-4-yl)imidazo[1,2-a]pyridin-3-yl]benzamide], for which the IC50 lay within 10 to 100 nM at SIK1 [5]; 0.01 to 10 nM at SIK2 [6]; 0.01 to 10 nM against SIK3 [7]; 0.01 to 10 nM on SIK1 [1]; 0.01 to 10 nM on SIK2 [2]; 0.01 to 10 nM against SIK3 [3].

As for `CCOC(=O)C(C(C)C)n1cc(-c2ccn3c(-c4cc(OC)c(C(=O)NCC(F)(F)F)c(OC)c4)cnc3c2)cn1` (stereo not shown) [Cpd 296, ethyl 2-[4-(3-[3,5-dimethoxy-4-(2,2,2-trifluoro-ethylcarbamoyl)phenyl]imidazo[1,2-a]pyridin-7-yl]pyrazol-1-yl]-3-methyl-butanoate], the IC50 at SIK1 [1], against SIK2 [2] and on SIK3 [3] was 0.01 to 10 nM each time. Also, the EC50 in assay [4] is 0.1 to 100 nM.

`COc1cc(-c2cnc3cc(-c4cn[nH]c4)ccn23)cc(OC(F)F)c1C(=O)NC1CC1` [compound 307, N-cyclopropyl-2-(difluoromethoxy)-6-methoxy-4-[7-(1H-pyrazol-4-yl)imidazo[1,2-a]pyridin-3-yl]benzamide]: the IC50 against SIK1 [1], against SIK2 [2] and on SIK3 [3] was 0.01 to 10 nM throughout. The molecule further registered an EC50 in assay [4] of 0.1 to 100 nM.

`CCN1Cc2cc(-n3cnc4cc(-c5cnn(C)c5)ccc43)cc(NCCO)c2C1=O` [Cpd 202, 2-ethyl-7-(2-hydroxyethylamino)-5-[5-(1-methylpyrazol-4-yl)benzimidazol-1-yl]isoindolin-1-one]: the 50% inhibitory concentration (IC50) at SIK1 [5] was 100 to 500 nM; at SIK2 [6], 100 to 500 nM; on SIK3 [7] it was greater than 500 nM; at SIK1 [1], 100 to 500 nM; against SIK2 [2], 100 to 500 nM; on SIK3 [3], 100 to 500 nM.

For the molecule `COc1cc(-c2cnc3cc(-c4cc(C)no4)ccn23)cc(OC(F)F)c1C(=O)NC1CC1` [compound 270, N-cyclopropyl-2-(difluoromethoxy)-6-methoxy-4-[7-(3-methylisoxazol-5-yl)imidazo[1,2-a]pyridin-3-yl]benzamide], the IC50 against SIK1 [1], on SIK2 [2] and on SIK3 [3] was 0.01 to 10 nM throughout. For the same molecule, the EC50 in assay [4] fell in the range of 0.1 to 100 nM.

`COc1ccc(-c2ccn3c(-c4cc(OC)c(C(=O)NC5CC5)c(OC(F)F)c4)cnc3c2)cn1` [compound 267, N-cyclopropyl-2-(difluoromethoxy)-6-methoxy-4-[7-(6-methoxy-3-pyridyl)imidazo[1,2-a]pyridin-3-yl]benzamide]: the IC50 at SIK1 [1], at SIK2 [2] and against SIK3 [3] was 0.01 to 10 nM each time. For the same molecule, the EC50 in assay [4] was 0.1 to 100 nM.

For `COc1cc(-c2cnc3cc(-c4cnn(CC(=O)OCC5CCCO5)c4)ccn23)cc(OC)c1C(=O)NCC(F)(F)F` (stereo not shown) [Cpd 297, tetrahydrofuran-2-ylmethyl 2-[4-[3-[3,5-dimethoxy-4-(2,2,2-trifluoro-ethylcarbamoyl)phenyl]imidazo[1,2-a]pyridin-7-yl]pyrazol-1-yl]acetate], the IC50 against SIK1 [1], against SIK2 [2] and against SIK3 [3] was 0.01 to 10 nM in each case. Also, the 50% effective concentration (EC50) in assay [4] lay within 100 to 1000 nM.

Consider `COCCOc1cc(-c2cnc3cc(-c4cnn(C)c4)ccn23)cc(OC)c1C(=O)NC1CC1` [Cpd 278, N-cyclopropyl-2-methoxy-6-(2-methoxyethoxy)-4-[7-(1-methylpyrazol-4-yl)imidazo[1,2-a]pyridin-3-yl]benzamide], for which the IC50 on SIK1 [1] lay within 10 to 100 nM; against SIK2 [2], 0.01 to 10 nM; at SIK3 [3] it was 0.01 to 10 nM. Besides, the 50% effective concentration (EC50) in assay [4] lay within 100 to 1000 nM.

For `COc1cc(-c2cnc3cc(-c4cnn(C)c4)c(OCC(=O)O)cn23)cc(OC(F)F)c1C(=O)NC1CC1` [Cpd 299, 2-[3-[4-(cyclopropyl-carbamoyl)-3-(difluoromethoxy)-5-methoxy-phenyl]-7-(1-melhylpyrazol-4-yl)imidazo[1,2-a]pyridin-6-yl]oxyacetic acid], the IC50 on SIK1 [1] was in the range of 10 to 100 nM; against SIK2 [2], 0.01 to 10 nM; against SIK3 [3] it was 10 to 100 nM. This molecule also came in with a concentration giving a half-maximal response (EC50) in assay [4] greater than 5000 nM.

As for `COc1cc(-c2cnc3cc(-c4cncn4C)ccn23)cc(OC(F)F)c1C(=O)NC1CC1` [compound 274, N-cyclopropyl-2-(difluoromethoxy)-6-methoxy-4-[7-(3-methylimidazol-4-yl)imidazo[1,2-a]pyridin-3-yl]benzamide], the figures for the IC50 against SIK1 [1], on SIK2 [2] and at SIK3 [3] were 10 to 100 nM, 0.01 to 10 nM and 0.01 to 10 nM, respectively. For the same molecule, the EC50 in assay [4] fell in the range of 100 to 1000 nM.

With `CCN(CC)CCOC(=O)C(C)(C)n1cc(-c2ccn3c(-c4cc(OC)c(C(=O)NCC(F)(F)F)c(OC)c4)cnc3c2)cn1` [Cpd 305, 2-(diethylamino)ethyl 2-[4-[3-[3,5-dimethoxy-4-(2,2,2-trifluoroethyl-carbamoyl)phenyl]imidazo[1,2-a]pyridin-7-yl]pyrazol-1-yl]-2-methyl-propanoate], the IC50 on SIK1 [1], against SIK2 [2] and on SIK3 [3] was 0.01 to 10 nM throughout. The EC50 in assay [4] was in the range of 100 to 1000 nM.
